Test results from the CheMixHub ionic liquid set.
± gives the uncertainty stated by the source.

Test: xn = mol fraction of the nth substance listed

Compound: CCCCCCCCCCCCCCn1cc[n+](C)c1.[Br-] + O
- electrical conductivity (298.15 K, 101 kPa, frequency 0.001 MHz, x1 = 4.74e-06): 0.00249 ± 0.0002 S/m
- electrical conductivity (298.15 K, 101 kPa, frequency 0.001 MHz, x1 = 9.35e-06): 0.00459 ± 0.00033 S/m
- electrical conductivity (298.15 K, 101 kPa, frequency 0.001 MHz, x1 = 1.386e-05): 0.0065 ± 0.0005 S/m
- electrical conductivity (298.15 K, 101 kPa, frequency 0.001 MHz, x1 = 1.825e-05): 0.00834 ± 0.00053 S/m
- electrical conductivity (298.15 K, 101 kPa, frequency 0.001 MHz, x1 = 2.252e-05): 0.0101 ± 0.0006 S/m
- electrical conductivity (298.15 K, 101 kPa, frequency 0.001 MHz, x1 = 2.669e-05): 0.0119 ± 0.00075 S/m
- electrical conductivity (298.15 K, 101 kPa, frequency 0.001 MHz, x1 = 3.076e-05): 0.0136 ± 0.00083 S/m
- electrical conductivity (298.15 K, 101 kPa, frequency 0.001 MHz, x1 = 3.474e-05): 0.0152 ± 0.00095 S/m
- electrical conductivity (298.15 K, 101 kPa, frequency 0.001 MHz, x1 = 3.862e-05): 0.0167 ± 0.001 S/m
- electrical conductivity (298.15 K, 101 kPa, frequency 0.001 MHz, x1 = 4.24e-05): 0.0183 ± 0.0011 S/m
- electrical conductivity (298.15 K, 101 kPa, frequency 0.001 MHz, x1 = 4.613e-05): 0.0192 ± 0.0011 S/m
- electrical conductivity (298.15 K, 101 kPa, frequency 0.001 MHz, x1 = 4.973e-05): 0.0199 ± 0.0011 S/m
- electrical conductivity (298.15 K, 101 kPa, frequency 0.001 MHz, x1 = 5.334e-05): 0.0204 ± 0.0011 S/m
- electrical conductivity (298.15 K, 101 kPa, frequency 0.001 MHz, x1 = 5.676e-05): 0.0209 ± 0.0011 S/m
- electrical conductivity (298.15 K, 101 kPa, frequency 0.001 MHz, x1 = 6e-05): 0.0213 ± 0.0012 S/m
- electrical conductivity (298.15 K, 101 kPa, frequency 0.001 MHz, x1 = 6.343e-05): 0.0217 ± 0.0012 S/m
- electrical conductivity (298.15 K, 101 kPa, frequency 0.001 MHz, x1 = 6.667e-05): 0.0221 ± 0.0012 S/m
- electrical conductivity (298.15 K, 101 kPa, frequency 0.001 MHz, x1 = 6.973e-05): 0.0225 ± 0.0013 S/m
- electrical conductivity (298.15 K, 101 kPa, frequency 0.001 MHz, x1 = 7.28e-05): 0.0229 ± 0.0013 S/m
- electrical conductivity (298.15 K, 101 kPa, frequency 0.001 MHz, x1 = 7.586e-05): 0.0233 ± 0.0013 S/m
- electrical conductivity (298.15 K, 101 kPa, frequency 0.001 MHz, x1 = 7.892e-05): 0.0236 ± 0.0013 S/m
- electrical conductivity (298.15 K, 101 kPa, frequency 0.001 MHz, x1 = 8.18e-05): 0.024 ± 0.0013 S/m
- electrical conductivity (298.15 K, 101 kPa, frequency 0.001 MHz, x1 = 8.451e-05): 0.0243 ± 0.0014 S/m
- electrical conductivity (298.15 K, 101 kPa, frequency 0.001 MHz, x1 = 8.739e-05): 0.0246 ± 0.0014 S/m
- electrical conductivity (308.15 K, 101 kPa, frequency 0.001 MHz, x1 = 4.74e-06): 0.00401 ± 0.00022 S/m
- electrical conductivity (308.15 K, 101 kPa, frequency 0.001 MHz, x1 = 9.35e-06): 0.00671 ± 0.00037 S/m
- electrical conductivity (308.15 K, 101 kPa, frequency 0.001 MHz, x1 = 1.386e-05): 0.0093 ± 0.0005 S/m
- electrical conductivity (308.15 K, 101 kPa, frequency 0.001 MHz, x1 = 1.825e-05): 0.011 ± 0.0006 S/m
- electrical conductivity (308.15 K, 101 kPa, frequency 0.001 MHz, x1 = 2.252e-05): 0.0135 ± 0.00076 S/m
- electrical conductivity (308.15 K, 101 kPa, frequency 0.001 MHz, x1 = 2.669e-05): 0.0154 ± 0.00085 S/m
- electrical conductivity (308.15 K, 101 kPa, frequency 0.001 MHz, x1 = 3.076e-05): 0.0173 ± 0.001 S/m
- electrical conductivity (308.15 K, 101 kPa, frequency 0.001 MHz, x1 = 3.474e-05): 0.0199 ± 0.0012 S/m
- electrical conductivity (308.15 K, 101 kPa, frequency 0.001 MHz, x1 = 3.862e-05): 0.0218 ± 0.0012 S/m
- electrical conductivity (308.15 K, 101 kPa, frequency 0.001 MHz, x1 = 4.24e-05): 0.0238 ± 0.0013 S/m
- electrical conductivity (308.15 K, 101 kPa, frequency 0.001 MHz, x1 = 4.613e-05): 0.0252 ± 0.0013 S/m
- electrical conductivity (308.15 K, 101 kPa, frequency 0.001 MHz, x1 = 4.973e-05): 0.0265 ± 0.0014 S/m
- electrical conductivity (308.15 K, 101 kPa, frequency 0.001 MHz, x1 = 5.334e-05): 0.0273 ± 0.0014 S/m
- electrical conductivity (308.15 K, 101 kPa, frequency 0.001 MHz, x1 = 5.676e-05): 0.0282 ± 0.0014 S/m
- electrical conductivity (308.15 K, 101 kPa, frequency 0.001 MHz, x1 = 6e-05): 0.0288 ± 0.0014 S/m
- electrical conductivity (308.15 K, 101 kPa, frequency 0.001 MHz, x1 = 6.343e-05): 0.0294 ± 0.0015 S/m
- electrical conductivity (308.15 K, 101 kPa, frequency 0.001 MHz, x1 = 6.667e-05): 0.03 ± 0.0015 S/m
- electrical conductivity (308.15 K, 101 kPa, frequency 0.001 MHz, x1 = 6.973e-05): 0.0305 ± 0.0015 S/m
- electrical conductivity (308.15 K, 101 kPa, frequency 0.001 MHz, x1 = 7.28e-05): 0.0311 ± 0.0015 S/m
- electrical conductivity (308.15 K, 101 kPa, frequency 0.001 MHz, x1 = 7.586e-05): 0.0316 ± 0.0016 S/m
- electrical conductivity (308.15 K, 101 kPa, frequency 0.001 MHz, x1 = 7.892e-05): 0.0321 ± 0.0016 S/m
- electrical conductivity (308.15 K, 101 kPa, frequency 0.001 MHz, x1 = 8.18e-05): 0.0326 ± 0.0016 S/m
- electrical conductivity (308.15 K, 101 kPa, frequency 0.001 MHz, x1 = 8.451e-05): 0.0329 ± 0.0016 S/m
- electrical conductivity (308.15 K, 101 kPa, frequency 0.001 MHz, x1 = 8.739e-05): 0.0333 ± 0.0017 S/m
- electrical conductivity (318.15 K, 101 kPa, frequency 0.001 MHz, x1 = 4.74e-06): 0.00409 ± 0.0002 S/m
- electrical conductivity (318.15 K, 101 kPa, frequency 0.001 MHz, x1 = 9.35e-06): 0.00708 ± 0.00038 S/m
- electrical conductivity (318.15 K, 101 kPa, frequency 0.001 MHz, x1 = 1.386e-05): 0.0101 ± 0.0005 S/m
- electrical conductivity (318.15 K, 101 kPa, frequency 0.001 MHz, x1 = 1.825e-05): 0.0127 ± 0.0007 S/m
- electrical conductivity (318.15 K, 101 kPa, frequency 0.001 MHz, x1 = 2.252e-05): 0.0154 ± 0.00087 S/m
- electrical conductivity (318.15 K, 101 kPa, frequency 0.001 MHz, x1 = 2.669e-05): 0.0182 ± 0.001 S/m
- electrical conductivity (318.15 K, 101 kPa, frequency 0.001 MHz, x1 = 3.076e-05): 0.0206 ± 0.0012 S/m
- electrical conductivity (318.15 K, 101 kPa, frequency 0.001 MHz, x1 = 3.474e-05): 0.0232 ± 0.0013 S/m
- electrical conductivity (318.15 K, 101 kPa, frequency 0.001 MHz, x1 = 3.862e-05): 0.0253 ± 0.0014 S/m
- electrical conductivity (318.15 K, 101 kPa, frequency 0.001 MHz, x1 = 4.24e-05): 0.028 ± 0.0016 S/m
- electrical conductivity (318.15 K, 101 kPa, frequency 0.001 MHz, x1 = 4.613e-05): 0.0303 ± 0.0017 S/m
- electrical conductivity (318.15 K, 101 kPa, frequency 0.001 MHz, x1 = 4.973e-05): 0.0322 ± 0.0017 S/m
- electrical conductivity (318.15 K, 101 kPa, frequency 0.001 MHz, x1 = 5.334e-05): 0.0335 ± 0.0016 S/m
- electrical conductivity (318.15 K, 101 kPa, frequency 0.001 MHz, x1 = 5.676e-05): 0.0345 ± 0.0017 S/m
- electrical conductivity (318.15 K, 101 kPa, frequency 0.001 MHz, x1 = 6e-05): 0.0356 ± 0.0017 S/m
- electrical conductivity (318.15 K, 101 kPa, frequency 0.001 MHz, x1 = 6.343e-05): 0.0365 ± 0.0017 S/m
- electrical conductivity (318.15 K, 101 kPa, frequency 0.001 MHz, x1 = 6.667e-05): 0.0372 ± 0.0017 S/m
- electrical conductivity (318.15 K, 101 kPa, frequency 0.001 MHz, x1 = 6.973e-05): 0.0377 ± 0.0017 S/m
- electrical conductivity (318.15 K, 101 kPa, frequency 0.001 MHz, x1 = 7.28e-05): 0.0383 ± 0.0018 S/m
- electrical conductivity (318.15 K, 101 kPa, frequency 0.001 MHz, x1 = 7.586e-05): 0.0389 ± 0.0018 S/m
- electrical conductivity (318.15 K, 101 kPa, frequency 0.001 MHz, x1 = 7.892e-05): 0.0396 ± 0.002 S/m
- electrical conductivity (318.15 K, 101 kPa, frequency 0.001 MHz, x1 = 8.18e-05): 0.0408 ± 0.0021 S/m
- electrical conductivity (318.15 K, 101 kPa, frequency 0.001 MHz, x1 = 8.451e-05): 0.0414 ± 0.002 S/m
- electrical conductivity (318.15 K, 101 kPa, frequency 0.001 MHz, x1 = 8.739e-05): 0.0418 ± 0.002 S/m

Compound: CCCCCCCC[N+](C)(CCCCCCCC)CCCCCCCC.O=S(=O)([N-]S(=O)(=O)C(F)(F)F)C(F)(F)F + O
- viscosity (313.15 K, 100 kPa, x1 = 0.8468): 239 ± 17 mPa·s
- viscosity (343.15 K, 100 kPa, x1 = 0.8468): 65 ± 4 mPa·s

Compound: CCCCCCCC[n+]1ccn(C)c1.F[P-](F)(F)(F)(F)F + O
- viscosity (293.15 K, 101 kPa, x2 = 0.212): 500 ± 93 mPa·s
- electrical conductivity (295.15 K, 101 kPa, x2 = 0.212): 0.12 ± 0.02 S/m

Compound: CCCCCCCC[n+]1ccn(C)c1.O=C([O-])[C@@H]1CCCN1 + O
- electrical conductivity (298.15 K, 100 kPa, frequency 0.001 MHz, x1 = 0.001745): 0.149 ± 0.0036 S/m
- electrical conductivity (298.15 K, 100 kPa, frequency 0.001 MHz, x1 = 0.002409): 0.209 ± 0.004 S/m
- electrical conductivity (298.15 K, 100 kPa, frequency 0.001 MHz, x1 = 0.002947): 0.264 ± 0.004 S/m
- electrical conductivity (298.15 K, 100 kPa, frequency 0.001 MHz, x1 = 0.003555): 0.308 ± 0.0043 S/m
- electrical conductivity (298.15 K, 100 kPa, frequency 0.001 MHz, x1 = 0.004199): 0.369 ± 0.0048 S/m
- electrical conductivity (298.15 K, 100 kPa, frequency 0.001 MHz, x1 = 0.004895): 0.425 ± 0.0053 S/m
- electrical conductivity (298.15 K, 100 kPa, frequency 0.001 MHz, x1 = 0.005502): 0.483 ± 0.0057 S/m
- electrical conductivity (298.15 K, 100 kPa, frequency 0.001 MHz, x1 = 0.006143): 0.531 ± 0.0058 S/m
- electrical conductivity (298.15 K, 100 kPa, frequency 0.001 MHz, x1 = 0.006819): 0.572 ± 0.006 S/m
- electrical conductivity (298.15 K, 100 kPa, frequency 0.001 MHz, x1 = 0.0076): 0.608 ± 0.0063 S/m
- electrical conductivity (298.15 K, 100 kPa, frequency 0.001 MHz, x1 = 0.008416): 0.648 ± 0.0067 S/m
- electrical conductivity (298.15 K, 100 kPa, frequency 0.001 MHz, x1 = 0.009336): 0.688 ± 0.0071 S/m
- electrical conductivity (298.15 K, 100 kPa, frequency 0.001 MHz, x1 = 0.01018): 0.725 ± 0.0074 S/m
- electrical conductivity (298.15 K, 100 kPa, frequency 0.001 MHz, x1 = 0.01137): 0.783 ± 0.008 S/m
- electrical conductivity (298.15 K, 100 kPa, frequency 0.001 MHz, x1 = 0.01233): 0.819 ± 0.0083 S/m
- electrical conductivity (298.15 K, 100 kPa, frequency 0.001 MHz, x1 = 0.01355): 0.879 ± 0.009 S/m
